In the NIST ThermoML archive (doi:10.1021/je049909d):

Key:
[1] = Liquid; for mass density / speed of sound: 298.15 K, 101.33 kPa; for speed of sound: Sing-around technique in a fixed-path interferometer
[2] = refractive index (Na D-line) (dimensionless); settings: 298.15 K; 101.33 kPa; Liquid; Standard Abbe refractometry
[3] = xn = mol fraction of the nth substance listed; settings: 298.15 K, 101.3 kPa, Liquid; for speed of sound: Sing-around technique in a fixed-path interferometer
[4] = refractive index (Na D-line) (dimensionless); xn = mol fraction of the nth substance listed; settings: 298.15 K, 101.3 kPa, Liquid, Standard Abbe refractometry

CO [methanol]
Settings | mass density [kg/m3] | refractive index | speed of sound [m/s]
[1] | 786.56 | – | 1101.8
[2] | – | 1.32634 | –

Settings | vapor or sublimation pressure [kPa]
[1], 337.9 K | 101.3

C=COC(C)=O [vinyl acetate]
Settings | mass density [kg/m3] | refractive index | speed of sound [m/s]
[1] | 925.59 | – | 1115.6
[2] | – | 1.39253 | –

Settings | vapor or sublimation pressure [kPa]
[1], 346.1 K | 101.3

C=COC(=O)CC [vinyl propanoate]
Settings | mass density [kg/m3] | refractive index | speed of sound [m/s]
[1] | 909.69 | – | 1133.9
[2] | – | 1.40153 | –

[1], Ebulliometric method (Recirculating still)
Settings | vapor or sublimation pressure [kPa]
320.7 K | 17.5
325.3 K | 21.5
329.4 K | 25.5
333 K | 29.5
336.3 K | 33.5
339.3 K | 37.5
341.9 K | 41.5
344.4 K | 45.5
346.8 K | 49.5
348.9 K | 53.5
350.9 K | 57.5
352.8 K | 61.5
354.7 K | 65.5
356.3 K | 69.5
358 K | 73.5
359.6 K | 77.5
361.1 K | 81.5
362.6 K | 85.5
364 K | 89.5
365.4 K | 93.5
366.7 K | 97.5
368 K | 101.3
368.1 K | 101.3

C=COC(=O)CC [vinyl propanoate] + C=COC(C)=O
Settings | mass density, [3] [kg/m3] | refractive index, [4] | speed of sound, [3] [m/s]
x2 = 0.05 | 910.31 | 1.40114 | 1132.8
x2 = 0.102 | 911.01 | 1.4007 | 1131.8
x2 = 0.167 | 911.87 | 1.40017 | 1130.5
x2 = 0.207 | 912.4 | 1.39986 | 1129.7
x2 = 0.264 | 913.2 | 1.39937 | 1128.6
x2 = 0.297 | 913.66 | 1.39906 | 1128
x2 = 0.354 | 914.5 | 1.3985 | 1126.9
x2 = 0.403 | 915.25 | 1.39817 | 1126
x2 = 0.466 | 916.22 | 1.39762 | 1124.9
x2 = 0.504 | 916.8 | 1.3973 | 1124.2
x2 = 0.545 | 917.48 | 1.3969 | 1123.4
x2 = 0.601 | 918.39 | 1.3964 | 1122.4
x2 = 0.65 | 919.18 | 1.39591 | 1121.6
x2 = 0.696 | 919.96 | 1.39554 | 1120.8
x2 = 0.753 | 920.95 | 1.39493 | 1119.8
x2 = 0.8 | 921.79 | 1.39456 | 1119
x2 = 0.839 | 922.51 | 1.3941 | 1118.3
x2 = 0.901 | 923.67 | 1.39358 | 1117.2
x2 = 0.955 | 924.72 | 1.39295 | 1116.3

C=COC(=O)CC [vinyl propanoate] + CO
Settings | mass density, [3] [kg/m3] | refractive index, [4] | speed of sound, [3] [m/s]
x2 = 0.05 | 907.45 | 1.40022 | 1132.9
x2 = 0.101 | 905 | 1.39881 | 1131.7
x2 = 0.168 | 901.52 | 1.3968 | 1130.2
x2 = 0.198 | 899.81 | 1.39573 | 1129.5
x2 = 0.242 | 897.25 | 1.39416 | 1128.4
x2 = 0.311 | 892.66 | 1.39141 | 1126.7
x2 = 0.337 | 890.92 | 1.39039 | 1126
x2 = 0.39 | 886.94 | 1.38789 | 1124.6
x2 = 0.452 | 881.8 | 1.38474 | 1122.8
x2 = 0.526 | 874.78 | 1.38044 | 1120.5
x2 = 0.547 | 872.66 | 1.37911 | 1119.8
x2 = 0.597 | 867.2 | 1.37583 | 1118
x2 = 0.657 | 859.7 | 1.37115 | 1115.9
x2 = 0.708 | 852.65 | 1.36685 | 1114.1
x2 = 0.748 | 846.29 | 1.36283 | 1112.6
x2 = 0.8 | 837.26 | 1.35725 | 1110.7
x2 = 0.85 | 827.36 | 1.3512 | 1108.7
x2 = 0.899 | 816.21 | 1.34444 | 1106.5
x2 = 0.949 | 803.01 | 1.33649 | 1104.9
